IC50 and Selectivity data for eleven compounds are collected here from patent EP4786487A1, “PEPTIDE” (Peptidream Inc, priority 2023, dated 2025).

Starred links: 1 amine or outer side, 2 acyl side, 3 side chain; linkers in the order of their positions; H or OH if unused. Positions of bridges follow the written chain, without caps; N, C: chain ends. Non-standard residues stand in square brackets, D forms with d. Residues, ends and D or L forms follow the SMILES beside them. *: point of attachment. Phe(3-OCH2COOH) = N[C@@H](Cc1cccc(OCC(=O)O)c1)C(=O)O; Phe(4-COOH) = N[C@@H](Cc1ccc(C(=O)O)cc1)C(=O)O; Trp(7-aza) = N[C@@H](Cc1c[nH]c2ncccc12)C(=O)O; Gly(N(CH2)3COOH) = O=C(O)CCCNCC(=O)O; X1 = CCCCCCC[C@H](N[*:1])C(=O)[*:2]; NMeF = CN[C@@H](Cc1ccccc1)C(=O)O; Carboxymethyl = O=C(O)C*; NMeA = CN[C@@H](C)C(=O)O; Sar = CNCC(=O)O

Common to all, as to assay type: cell-based
For experiment [1], the target named is T1, Myostatin (Homo sapiens, UniProt O14793).
T1 construct: active myostatin (also called mature myostatin) is a homodimer consisting of two C-terminal growth factor domains; purchased R&D systems 788-G8/CF
T1 sequence (O14793 267-375): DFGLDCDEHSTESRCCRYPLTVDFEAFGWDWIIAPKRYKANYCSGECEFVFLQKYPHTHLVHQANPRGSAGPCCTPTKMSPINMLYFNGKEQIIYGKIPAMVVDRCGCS
In words: Reporter gene assay for myostatin signaling in HepG2 cell line, Evaluation Procedure (1), myostatin inhibition. The following applies: Method A: Myostatin 10 ng/mL; read-out: IC50 (Luciferase) Myostatin HepG2. A digest of the protocol: (§1)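 HepG2 cells transfected with pGL3(CAGA)12-luciferase reporter, serum-starved in 0.1% BSA medium, then stimulated with myostatin or GDF-11 plus 4-fold peptide dilutions (0.006–100 nmol/L for myostatin, 0.12–2000 nmol/L for GDF-11) for 20–24 h at 37 °C. Luminescence read with One-Glo; IC50 calculated.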
For orientation: In a reporter assay the amount or activity of a reporter protein is the signal.

Experiment [2] has as its system Myostatin. The description is as above. The following applies: Method A; GDF-11 IC50 versus Myostatin IC50. A digest of the protocol: as §1
A further experiment deals with T2, GDF-11 (Homo sapiens, UniProt O95390).
T2 construct: purchased R&D systems 1958-GD-G8/CF
T2 sequence (O95390 299-407): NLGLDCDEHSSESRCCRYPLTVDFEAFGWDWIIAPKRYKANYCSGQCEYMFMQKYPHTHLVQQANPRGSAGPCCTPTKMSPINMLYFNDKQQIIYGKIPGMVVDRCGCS
In words: Reporter gene assay for myostatin signaling in HepG2 cell line, Evaluation Procedure (1), GDF-11 inhibition. The following applies: Method A: GDF-11 10 ng/mL; read-out: IC50 (Luciferase) GDF-11 HepG2. A digest of the protocol: as §1

As a reminder, the IC50 is the concentration at which inhibition is half-maximal. Take `CCCCCCC[C@@H]1NC(=O)[C@H](Cc2ccccc2)N(C)C(=O)[C@H](CCCNC(=N)N)NC(=O)[C@H](Cc2ccc(OCC(=O)O)cc2)NC(=O)[C@H](Cc2cccc(OCC(=O)O)c2)NC(=O)[C@H](C)N(C)C(=O)[C@H]([C@@H](C)CC)NC(=O)[C@H](Cc2ccccc2)N(C)C(=O)[C@H](Cc2ccc(O)cc2)NC(=O)[C@H](Cc2c[nH]c3ncccc23)NC(=O)[C@H](C)NC(=O)CN(CCCC(=O)O)C(=O)CSC[C@H](C(=O)O)NC(=O)[C@H](Cc2ccccc2)N(C)C(=O)[C@H](C)N(C)C1=O` [Myostatin_99_v153] ({CH2CO}-[Gly(N(CH2)3COOH)]A[Trp(7-aza)]Y[NMeF]I[NMeA][Phe(3-OCH2COOH)]Y(Carboxymethyl)R[NMeF][X1][NMeA][NMeF][dC]-OH; thioether N-15): the IC50 at Myostatin [1] stood at 1.2 nM; on GDF-11, 267 nM. Also, the Selectivity with Myostatin [2] turned out to be 222.
On the same counts, the results for `CC[C@H](C)[C@@H]1NC(=O)[C@H](Cc2ccccc2)N(C)C(=O)[C@H](Cc2ccc(O)cc2)NC(=O)[C@H](Cc2c[nH]c3ccccc23)NC(=O)[C@H](C)NC(=O)CN(CCCC(=O)O)C(=O)CSC[C@H](C(=O)O)NC(=O)[C@H](Cc2ccccc2)N(C)C(=O)[C@H](C)N(C)C(=O)[C@H](CC(C)C)NC(=O)[C@H](Cc2ccccc2)N(C)C(=O)[C@H](CCCNC(=N)N)NC(=O)[C@H](Cc2ccc(C(=O)O)cc2)NC(=O)[C@H](Cc2cccc(OCC(=O)O)c2)NC(=O)CN(C)C1=O` [Myostatin_99_v156] ({CH2CO}-[Gly(N(CH2)3COOH)]AWY[NMeF]I[Sar][Phe(3-OCH2COOH)][Phe(4-COOH)]R[NMeF]L[NMeA][NMeF][dC]-OH; thioether N-15) are 69 nM, 4810 nM and 70.
The corresponding values for `CC[C@H](C)[C@@H]1NC(=O)[C@H](Cc2ccccc2)N(C)C(=O)[C@H](Cc2ccc(O)cc2)NC(=O)[C@H](Cc2c[nH]c3ccccc23)NC(=O)[C@H](CO)NC(=O)CN(CCCC(=O)O)C(=O)CSC[C@H](C(=O)O)NC(=O)[C@H](Cc2ccccc2)N(C)C(=O)[C@H](C)N(C)C(=O)[C@H](CC(C)C)NC(=O)[C@H](Cc2ccccc2)N(C)C(=O)[C@H](CCCNC(=N)N)NC(=O)[C@H](Cc2ccc(C(=O)O)cc2)NC(=O)[C@H](Cc2cccc(OCC(=O)O)c2)NC(=O)[C@H](C)N(C)C1=O` [Myostatin_99_v158] ({CH2CO}-[Gly(N(CH2)3COOH)]SWY[NMeF]I[NMeA][Phe(3-OCH2COOH)][Phe(4-COOH)]R[NMeF]L[NMeA][NMeF][dC]-OH; thioether N-15) are 62 nM, 6460 nM and 104.
As for `CCCCCCC[C@@H]1NC(=O)[C@H](Cc2ccccc2)N(C)C(=O)[C@H](CCCNC(=N)N)NC(=O)[C@H](Cc2ccc(C(=O)O)cc2)NC(=O)[C@H](Cc2cccc(OCC(=O)O)c2)NC(=O)CN(C)C(=O)[C@H]([C@@H](C)CC)NC(=O)[C@H](Cc2ccccc2)N(C)C(=O)[C@H](Cc2ccc(O)cc2)NC(=O)[C@H](Cc2c[nH]c3ccccc23)NC(=O)[C@H](CO)NC(=O)[C@H](C)NC(=O)CSC[C@H](C(=O)O)NC(=O)[C@H](Cc2ccccc2)N(C)C(=O)[C@H](C)N(C)C1=O` [Myostatin_99_v159] ({CH2CO}-ASWY[NMeF]I[Sar][Phe(3-OCH2COOH)][Phe(4-COOH)]R[NMeF][X1][NMeA][NMeF][dC]-OH; thioether N-15), the IC50 on Myostatin [1] came out at 3.9 nM; at GDF-11 it was 404 nM. The Selectivity with Myostatin [2] is given as 104.
Take `CCCCCCC[C@@H]1NC(=O)[C@H](Cc2ccccc2)N(C)C(=O)[C@H](CCCNC(=N)N)NC(=O)[C@H](Cc2ccc(C(=O)O)cc2)NC(=O)[C@H](Cc2cccc(OCC(=O)O)c2)NC(=O)CN(C)C(=O)[C@H]([C@@H](C)CC)NC(=O)[C@H](Cc2ccccc2)N(C)C(=O)[C@H](Cc2ccc(O)cc2)NC(=O)[C@H](Cc2c[nH]c3ncccc23)NC(=O)[C@H](CO)NC(=O)[C@H](C)NC(=O)CSC[C@H](C(=O)O)NC(=O)[C@H](Cc2ccccc2)N(C)C(=O)[C@H](C)N(C)C1=O` [Myostatin_99_v160] ({CH2CO}-AS[Trp(7-aza)]Y[NMeF]I[Sar][Phe(3-OCH2COOH)][Phe(4-COOH)]R[NMeF][X1][NMeA][NMeF][dC]-OH; thioether N-15): the 50% inhibitory concentration (IC50) came out at 3.2 nM on Myostatin [1] and 350 nM at GDF-11. In the experiment on Myostatin [2], this compound had a Selectivity of 109.
The corresponding values for `CCCCCCC[C@@H]1NC(=O)[C@H](Cc2ccccc2)N(C)C(=O)[C@H](CCCNC(=N)N)NC(=O)[C@H](Cc2ccc(C(=O)O)cc2)NC(=O)[C@H](Cc2cccc(OCC(=O)O)c2)NC(=O)CN(C)C(=O)[C@H]([C@@H](C)CC)NC(=O)[C@H](Cc2ccccc2)N(C)C(=O)[C@H](Cc2ccc(O)cc2)NC(=O)[C@H](Cc2c[nH]c3ccccc23)NC(=O)[C@H](CO)NC(=O)CN(CCCC(=O)O)C(=O)CSC[C@H](C(=O)O)NC(=O)[C@H](Cc2ccccc2)N(C)C(=O)[C@H](C)N(C)C1=O` [Myostatin_99_v161] ({CH2CO}-[Gly(N(CH2)3COOH)]SWY[NMeF]I[Sar][Phe(3-OCH2COOH)][Phe(4-COOH)]R[NMeF][X1][NMeA][NMeF][dC]-OH; thioether N-15) are 8.2 nM, 1240 nM and 151.
For `CCCCCCC[C@@H]1NC(=O)[C@H](Cc2ccccc2)N(C)C(=O)[C@H](CCCNC(=N)N)NC(=O)[C@H](Cc2ccc(C(=O)O)cc2)NC(=O)[C@H](Cc2cccc(OCC(=O)O)c2)NC(=O)CN(C)C(=O)[C@H]([C@@H](C)CC)NC(=O)[C@H](Cc2ccccc2)N(C)C(=O)[C@H](Cc2ccc(O)cc2)NC(=O)[C@H](Cc2c[nH]c3ncccc23)NC(=O)[C@H](CO)NC(=O)CN(CCCC(=O)O)C(=O)CSC[C@H](C(=O)O)NC(=O)[C@H](Cc2ccccc2)N(C)C(=O)[C@H](C)N(C)C1=O` [Myostatin_99_v162] ({CH2CO}-[Gly(N(CH2)3COOH)]S[Trp(7-aza)]Y[NMeF]I[Sar][Phe(3-OCH2COOH)][Phe(4-COOH)]R[NMeF][X1][NMeA][NMeF][dC]-OH; thioether N-15), the IC50 on Myostatin [1] was found to be 6.1 nM; on GDF-11 it was 90 nM. In the experiment on Myostatin [2], this compound gave a Selectivity of 15.
Take `CCCCCCC[C@@H]1NC(=O)[C@H](Cc2ccccc2)N(C)C(=O)[C@H](CCCNC(=N)N)NC(=O)[C@H](Cc2ccc(C(=O)O)cc2)NC(=O)[C@H](Cc2cccc(OCC(=O)O)c2)NC(=O)[C@H](C)N(C)C(=O)[C@H]([C@@H](C)CC)NC(=O)[C@H](Cc2ccccc2)N(C)C(=O)[C@H](Cc2ccc(O)cc2)NC(=O)[C@H](Cc2c[nH]c3ccccc23)NC(=O)[C@H](CO)NC(=O)CN(CCCC(=O)O)C(=O)CSC[C@H](C(=O)O)NC(=O)[C@H](Cc2ccccc2)N(C)C(=O)[C@H](C)N(C)C1=O` [Myostatin_99_v163] ({CH2CO}-[Gly(N(CH2)3COOH)]SWY[NMeF]I[NMeA][Phe(3-OCH2COOH)][Phe(4-COOH)]R[NMeF][X1][NMeA][NMeF][dC]-OH; thioether N-15): the IC50 on Myostatin [1] came out at 3.6 nM; on GDF-11, 1000 nM. The compound further came in with a Selectivity in the experiment on Myostatin [2] of 279.
On the same counts, the results for `CCCCCCC[C@@H]1NC(=O)[C@H](Cc2ccccc2)N(C)C(=O)[C@H](CCCNC(=N)N)NC(=O)[C@H](Cc2ccc(C(=O)O)cc2)NC(=O)[C@H](Cc2cccc(OCC(=O)O)c2)NC(=O)[C@H](C)N(C)C(=O)[C@H]([C@@H](C)CC)NC(=O)[C@H](Cc2ccccc2)N(C)C(=O)[C@H](Cc2ccc(O)cc2)NC(=O)[C@H](Cc2c[nH]c3ncccc23)NC(=O)[C@H](CO)NC(=O)CN(CCCC(=O)O)C(=O)CSC[C@H](C(=O)O)NC(=O)[C@H](Cc2ccccc2)N(C)C(=O)[C@H](C)N(C)C1=O` [Myostatin_99_v164] ({CH2CO}-[Gly(N(CH2)3COOH)]S[Trp(7-aza)]Y[NMeF]I[NMeA][Phe(3-OCH2COOH)][Phe(4-COOH)]R[NMeF][X1][NMeA][NMeF][dC]-OH; thioether N-15) are 4.2 nM, 1340 nM and 320.
The corresponding values for `CCCCCCC[C@@H]1NC(=O)[C@H](Cc2ccccc2)N(C)C(=O)[C@H](CCCNC(=N)N)NC(=O)[C@H](Cc2ccc(C(=O)O)cc2)NC(=O)[C@H](Cc2cccc(OCC(=O)O)c2)NC(=O)CN(C)C(=O)[C@H]([C@@H](C)CC)NC(=O)[C@H](Cc2ccccc2)N(C)C(=O)[C@H](Cc2ccc(O)cc2)NC(=O)[C@H](Cc2c[nH]c3ccccc23)NC(=O)[C@H](C)NC(=O)CN(CCCC(=O)O)C(=O)CSC[C@H](C(=O)O)NC(=O)[C@H](Cc2ccccc2)N(C)C(=O)[C@H](C)N(C)C1=O` [Myostatin_99_v165] ({CH2CO}-[Gly(N(CH2)3COOH)]AWY[NMeF]I[Sar][Phe(3-OCH2COOH)][Phe(4-COOH)]R[NMeF][X1][NMeA][NMeF][dC]-OH; thioether N-15) are 14 nM, 1240 nM and 89.
For `CCCCCCC[C@@H]1NC(=O)[C@H](Cc2ccccc2)N(C)C(=O)[C@H](CCCNC(=N)N)NC(=O)[C@H](Cc2ccc(C(=O)O)cc2)NC(=O)[C@H](Cc2cccc(OCC(=O)O)c2)NC(=O)CN(C)C(=O)[C@H]([C@@H](C)CC)NC(=O)[C@H](Cc2ccccc2)N(C)C(=O)[C@H](Cc2ccc(O)cc2)NC(=O)[C@H](Cc2c[nH]c3ncccc23)NC(=O)[C@H](C)NC(=O)CN(CCCC(=O)O)C(=O)CSC[C@H](C(=O)O)NC(=O)[C@H](Cc2ccccc2)N(C)C(=O)[C@H](C)N(C)C1=O` [Myostatin_99_v166] ({CH2CO}-[Gly(N(CH2)3COOH)]A[Trp(7-aza)]Y[NMeF]I[Sar][Phe(3-OCH2COOH)][Phe(4-COOH)]R[NMeF][X1][NMeA][NMeF][dC]-OH; thioether N-15), the half-inhibitory concentration (IC50) was found to be 3.5 nM on Myostatin [1] and 951 nM on GDF-11. The Selectivity with Myostatin [2] was 272.
